# Measured values: patent US9034403B2, “Yeast extract containing γ-Glu-X or γ-Glu-X-Gly and a method for producing the same” (AJINOMOTO CO., INC., priority 2010, dated 2015)
# System: S288C and HGT1 or PTR2 modified strains (Hgt1p, Ptr2p)
# Assay: Evaluation of γ-Glu-Val-Gly uptake activity of HGT1 or PTR2 modified strains
# Type: cell-based, Saccharomyces cerevisiae
# Conditions: 100 ppm γ-Glu-Val-Gly in SD medium, 7 hours
# Experimental: The influence of Hgt1p, which has been considered to be a GSH specific transporter, and Ptr2p, which is a peptide transporter, on γ-Glu-Val-Gly accumulation was evaluated as follows.
# Each strain was cultivated in 50-ml tubes containing 5 ml of SD medium with 100 ppm γ-Glu-Val-Gly as a final concentration. Tubes were inoculated by overnight culture of the corresponding strain at initial OD600=0.5, and placed in a rotation shaker at 240 rpm, 30° C. The cultivation time was 7 hours. Then, cells from 2 ml of broth culture were harvested by centrifugation, and were washed with 1 ml of milliQ water three times. Then, washed cells were suspended in 1 ml of milliQ and were incubated at 70° C. for 10 min with a water bath to extract intracellular materials. After cell debris and the extract were separated by centrifugation, the aqueous phase was transferred to a clean vial and the vial was then vacuum-dried. Thus, a dried extract was prepared. Then, the amount of γ-Glu-Val-Gly in the dried extract was measured with LC-MS/MS analysis. The detailed procedures are described below.
# 1. Sample was dissolved in 100 μl of water, and then 100 μl of acetonitrile (MeCN) was added, and then centrifuged.
# 2. 190 μl of supernatant was transferred to a new tube and dried.
# 3. Pellet was dissolved in 40 μl of water.
# 4. For derivatization, 20 μl of the obtained solution was mixed with 60 μl of buffer and 80 μl of derivatization reagent, and incubated at 55° C. for 10 min.
# 5. After incubation, 200 μl of 0.1% solution of HCOOH in water was added to stop AQC derivatization reaction.
# 40 μl of the resultingsolution was taken for HPLC, and γ-Glu-Val-Gly in the elutants was analyzed with MS/MS detector.
# It was shown that the HGT1 gene is essential to transport γ-Glu-Val-Gly from the medium, but PTR2 is not.
smiles,measurement,setting,value
CC(C)[C@H](NC(=O)CC[C@H](N)C(=O)O)C(=O)NCC(=O)O [γ-Glu-Val-Gly],intracellular γ-Glu-Val-Gly,"Table 13, strain S288C hgt1Δ ptr2Δ",0.01 mg 1^−1 OD600^−1
same,intracellular γ-Glu-Val-Gly,"Table 13, strain S288C hgt1Δ",0.01 mg 1^−1 OD600^−1
same,intracellular γ-Glu-Val-Gly,"Table 13, strain S288C ptr2Δ",1.84 mg 1^−1 OD600^−1
same,intracellular γ-Glu-Val-Gly,"Table 13, strain S288C",1.93 mg 1^−1 OD600^−1
same,intracellular γ-Glu-Val-Gly,"Table 14, strain S288C PADH1-HGT1",28.6 mg 1^−1 OD600^−1
same,intracellular γ-Glu-Val-Gly,"Table 14, strain S288C PADH1-PTR2",2.6 mg 1^−1 OD600^−1
same,intracellular γ-Glu-Val-Gly,"Table 14, strain S288C",3.3 mg 1^−1 OD600^−1
